According to patent publication US11000033B2, “Ketone or oxime compound, and herbicide” (NISSAN CHEMICAL CORPORATION, priority 2014, dated 2021):

Legend:
Assay type in all cases: in vivo
Scirpus juncoides = assay: Test Example 1: herbicidal activity, application before weed generation in submerged conditions (symbol B); settings: application herbicide amount 320 g/ha
In short: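 Weeds are sown into submerged alluvial soil alongside transplanted 2.5-leaf rice, and the compound, as an emulsion diluted to a set rate, is applied onto the water before emergence. Rating on the 0–5 herbicidal-ratio scale follows 3 weeks of greenhouse growth at 25–30 °C.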

Lolium multiflorum Lam. = assay: Test Example 5: herbicidal effect by foliage application, plastic box (symbol K); settings: 320 g/ha, 3 weeks after application
In short: (§1)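 Sowing in sterilized diluvial soil, 14 days' greenhouse growth at 25° C. to 30° C., then uniform small-sprayer foliar application of aqueous emulsion dilution; plants scored three weeks afterwards.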

Amaranthus retroflexus = assay: Test Example 5: herbicidal effect by foliage application, plastic box (symbol N); settings: 320 g/ha, 3 weeks after application
In short: as §1

Row | Compound | Herbicidal effect grade, B: Scirpus juncoides (Scirpus juncoides) | K: Lolium multiflorum Lam., herbicidal effect grade (Lolium multiflorum Lam.) | N: Amaranthus retroflexus, herbicidal effect grade (Amaranthus retroflexus) | K: Lolium multiflorum Lam., herbicidal effect (criteria 0-5) (Lolium multiflorum Lam.) | N: Amaranthus retroflexus, herbicidal effect (criteria 0-5) (Amaranthus retroflexus)
1 | CON=CC1CC(O)=C(c2c(C)cc(C)cc2C)C1=O (mixture of isomers) [3-001] | 0 (Herbicidal ratio of 5% or lower (almost no effect)) | 4 (Herbicidal ratio of 70% or higher and lower than 90%) | 0 (Herbicidal ratio of 5% or lower (almost no effect)) | – | –
2 | CON=C(C)C1CC(O)=C(c2c(C)cc(C)cc2C)C1=O (mixture of isomers) [3-002] | 0 (Herbicidal ratio of 5% or lower (almost no effect)) | 1 (Herbicidal ratio of 5% or higher and lower than 20%) | 0 (Herbicidal ratio of 5% or lower (almost no effect)) | – | –
3 | CCC(CCC1CC(O)=C(c2c(C)cc(C)cc2C)C1=O)=NOC (mixture of isomers) [4-001] | 0 (Herbicidal ratio of 5% or lower (almost no effect)) | 5 (Herbicidal ratio of 90% or more (almost completely withered)) | 0 (Herbicidal ratio of 5% or lower (almost no effect)) | – | –
4 | CON=C(C)CC1CC(O)=C(c2c(C)cc(-n3cc(Cl)cn3)cc2C)C1=O (mixture of isomers) [6-004] | 5 (Herbicidal ratio of 90% or more (almost completely withered)) | 5 (Herbicidal ratio of 90% or more (almost completely withered)) | 2 (Herbicidal ratio of 20% or higher and lower than 40%) | – | –
5 | CCc1cc(-n2cc(Cl)cn2)cc(C)c1C1=C(O)CC(CC(C)=NOC)C1=O (mixture of isomers) [6-005] | 5 (Herbicidal ratio of 90% or more (almost completely withered)) | 5 (Herbicidal ratio of 90% or more (almost completely withered)) | 4 (Herbicidal ratio of 70% or higher and lower than 90%) | – | –
6 | CC#Cc1cc(C)c(C2=C(O)CC(CC(C)=NOC)C2=O)c(CC)c1 (mixture of isomers) [6-006] | 5 (Herbicidal ratio of 90% or more (almost completely withered)) | 4 (Herbicidal ratio of 70% or higher and lower than 90%) | 0 (Herbicidal ratio of 5% or lower (almost no effect)) | – | –
7 | CCc1cc(C#C[Si](C)(C)C)cc(C)c1C1=C(O)CC(CC(C)=NOC)C1=O (mixture of isomers) [6-008] | 5 (Herbicidal ratio of 90% or more (almost completely withered)) | 3 (Herbicidal ratio of 40% or higher and lower than 70%) | 0 (Herbicidal ratio of 5% or lower (almost no effect)) | – | –
8 | CC#Cc1cc(C)c(C2=C(O)CC(CC(C)=NOC)C2=O)c(C)c1 (mixture of isomers) [6-009] | 2 (Herbicidal ratio of 20% or higher and lower than 40%) | 5 (Herbicidal ratio of 90% or more (almost completely withered)) | 0 (Herbicidal ratio of 5% or lower (almost no effect)) | – | –
9 | CON=C(C)CC1CC(O)=C(c2c(C)cc(C#CC3CC3)cc2C)C1=O (mixture of isomers) [6-010] | 4 (Herbicidal ratio of 70% or higher and lower than 90%) | 4 (Herbicidal ratio of 70% or higher and lower than 90%) | 0 (Herbicidal ratio of 5% or lower (almost no effect)) | – | –
10 | CON=C(C)CC1CC(O)=C(c2c(C)cc(-c3ccc(C(F)(F)F)cc3)cc2C)C1=O (mixture of isomers) [6-016] | 0 (Herbicidal ratio of 5% or lower (almost no effect)) | 5 (Herbicidal ratio of 90% or more (almost completely withered)) | 0 (Herbicidal ratio of 5% or lower (almost no effect)) | – | –
11 | CON=C(C)CC1CC(O)=C(c2c(C)cc(-c3ccc(OC)cc3)cc2C)C1=O (mixture of isomers) [6-017] | 1 (Herbicidal ratio of 5% or higher and lower than 20%) | 5 (Herbicidal ratio of 90% or more (almost completely withered)) | 0 (Herbicidal ratio of 5% or lower (almost no effect)) | – | –
12 | CON=C(C)CC1CC(O)=C(c2c(C)cc(-c3ccc(C)cc3)cc2C)C1=O (mixture of isomers) [6-018] | 5 (Herbicidal ratio of 90% or more (almost completely withered)) | 5 (Herbicidal ratio of 90% or more (almost completely withered)) | 0 (Herbicidal ratio of 5% or lower (almost no effect)) | – | –
13 | CON=C(C)CC1CC(O)=C(c2c(C)cc(C#CCO)cc2C)C1=O (mixture of isomers) [6-025] | 0 (Herbicidal ratio of 5% or lower (almost no effect)) | 5 (Herbicidal ratio of 90% or more (almost completely withered)) | 0 (Herbicidal ratio of 5% or lower (almost no effect)) | – | –
14 | CON=C(C)CC1CC(O)=C(c2c(C)cc(-c3ccc(Cl)cc3)cc2C)C1=O (mixture of isomers) [6-029] | 3 (Herbicidal ratio of 40% or higher and lower than 70%) | 5 (Herbicidal ratio of 90% or more (almost completely withered)) | 5 (Herbicidal ratio of 90% or more (almost completely withered)) | – | –
15 | C=Cc1cc(C)c(C2=C(O)CC(CC(C)=NOC)C2=O)c(C)c1 (mixture of isomers) [6-031] | 0 (Herbicidal ratio of 5% or lower (almost no effect)) | 5 (Herbicidal ratio of 90% or more (almost completely withered)) | 0 (Herbicidal ratio of 5% or lower (almost no effect)) | – | –
16 | CON=C(C)CC1CC(O)=C(c2c(C)cc(-c3cccc(Cl)c3)cc2C)C1=O (mixture of isomers) [6-034] | 5 (Herbicidal ratio of 90% or more (almost completely withered)) | 4 (Herbicidal ratio of 70% or higher and lower than 90%) | 3 (Herbicidal ratio of 40% or higher and lower than 70%) | – | –
17 | CON=C(C)CC1CC(O)=C(c2c(C)cc(-c3ccc(Cl)nc3)cc2C)C1=O (mixture of isomers) [6-035] | 4 (Herbicidal ratio of 70% or higher and lower than 90%) | 5 (Herbicidal ratio of 90% or more (almost completely withered)) | 5 (Herbicidal ratio of 90% or more (almost completely withered)) | – | –
18 | C#CCOC1=C(c2c(C)cc(C)cc2C)C(=O)C(CC(C)=NOC)C1 (stereo not drawn) [1-008] | 3 (Herbicidal ratio of 40% or higher and lower than 70%) | 5 (Herbicidal ratio of 90% or more (almost completely withered)) | 0 (Herbicidal ratio of 5% or lower (almost no effect)) | – | –
19 | CON=C(C)CC1CC(OC(=O)c2ccccc2)=C(c2c(C)cc(C)cc2C)C1=O (stereo not drawn) [1-010] | 5 (Herbicidal ratio of 90% or more (almost completely withered)) | 5 (Herbicidal ratio of 90% or more (almost completely withered)) | 4 (Herbicidal ratio of 70% or higher and lower than 90%) | – | –
20 | CON=C(C)CC1CC(OCCSC)=C(c2c(C)cc(C)cc2C)C1=O (stereo not drawn) [1-011] | 0 (Herbicidal ratio of 5% or lower (almost no effect)) | 5 (Herbicidal ratio of 90% or more (almost completely withered)) | 0 (Herbicidal ratio of 5% or lower (almost no effect)) | – | –
21 | CON=C(C)CC1CC(OCC(=O)OC)=C(c2c(C)cc(C)cc2C)C1=O (stereo not drawn) [1-012] | 0 (Herbicidal ratio of 5% or lower (almost no effect)) | 0 (Herbicidal ratio of 5% or lower (almost no effect)) | 0 (Herbicidal ratio of 5% or lower (almost no effect)) | – | –
22 | CON=C(C)CC1CC(OCC#N)=C(c2c(C)cc(C)cc2C)C1=O (stereo not drawn) [1-013] | 0 (Herbicidal ratio of 5% or lower (almost no effect)) | 5 (Herbicidal ratio of 90% or more (almost completely withered)) | 0 (Herbicidal ratio of 5% or lower (almost no effect)) | – | –
23 | CON=C(C)CC1CC(OC(=O)OC)=C(c2c(C)cc(C)cc2C)C1=O (stereo not drawn) [1-014] | 5 (Herbicidal ratio of 90% or more (almost completely withered)) | 5 (Herbicidal ratio of 90% or more (almost completely withered)) | 5 (Herbicidal ratio of 90% or more (almost completely withered)) | – | –
24 | CON=C(C)CC1CC(OS(=O)(=O)CCCCl)=C(c2c(C)cc(C)cc2C)C1=O (stereo not drawn) [1-142] | 5 (Herbicidal ratio of 90% or more (almost completely withered)) | – | – | 5 (Herbicidal ratio of 90% or more (almost completely withered)) | 0 (Herbicidal ratio of 5% or lower (almost no effect))
25 | CON=C(C)CC1CC(OS(=O)(=O)C2CC2)=C(c2c(C)cc(C)cc2C)C1=O (stereo not drawn) [1-143] | 4 (Herbicidal ratio of 70% or higher and lower than 90%) | – | – | 5 (Herbicidal ratio of 90% or more (almost completely withered)) | 1 (Herbicidal ratio of 5% or higher and lower than 20%)
